Test results published in paper PMC10138233 (PLOS ONE, 2023).

Legend:
[1] = test system: SH-SY5Y (human neuroblastoma) cell line; assay: MTT cell viability assay; details: 48 h
Protocol: (§1) This study utilized SH-SY5Y (human neuroblastoma) cell lines. […] After dissolving the cell line stored in a nitrogen tank for long-term use, the cells were removed from the culture dish with a 0.25 Trypsin/EDTA solution when they reached 70% density in the culture flasks. The cells were incubated in DMEM (Capricorn) supplemented with 10% heat-inactivated fetal bovine serum (FBS) and 0.1 mg/ml of penicillin at 37°C with 5% CO2. The medium was refreshed every 48 hours, and passages were made every 5 days based on cell confluency.
The MTT (3-(4,5-dimethylthiazol-2-yl)-2,5-diphenyltetrazolium bromide) assay is a commonly used colorimetric assay to measure cellular viability. […] The amount of formazan produced can be measured by determining the absorbance of the solution at a specific wavelength, which is proportional to the number of viable cells. This assay is widely used in cell biology and drug discovery research to evaluate the cytotoxic effects of various agents on cell viability.
In this study, the MTT assay was selected as the cell viability test. 12,500 cells were seeded per well in a 96-well plate. The cells were then incubated at 37°C with 5% CO2 for 24 h. After 24 h, the old medium was removed and drugs prepared by serial dilution in 100 μl of DMEM within the determined concentration range were applied to three wells, with one well selected as a control (untreated). The plate was then incubated at 37°C with 5% CO2 for another 48 h. After 48 h, […] of 10% MTT (Roche) solution in DMEM was added to each well, and two empty wells were added with only MTT solution for background measurement. After 4 h, 100 μl of solubilizing buffer was added to each well. The plate was incubated at 37°C with 5% CO2 for 16 h. After 16 h, the cell number in each sample was determined by measuring the absorbance spectrophotometrically at […] using a microplate reader (OMEGA). The data was used to determine the percentage relative to the control and create a dose-cell viability graph.
(§2) All the analysis data from the RTCA device and the data generated from the MARS application using the microplate reader (OMEGA) were calculated in the GraphPad Prism 9.5.1 version using the ordinary one-way ANOVA multiple comparisons Tukey test. The results were graphically represented in Excel. Logarithmic calculations were made from the dose-response graph in Excel to obtain the IC50 values.

[2] = test system: SH-SY5Y (human neuroblastoma) cell line; assay: xCELLigence Real Time Cell Analysis (RTCA) of cell viability/proliferation
Protocol: as §1
RTCA system is an analytical technique that follows cellular events such as proliferation by measuring the electric impedance passing through microelectrodes integrated beneath 96-well special plates in real-time. A 16-well e-plate compatible with the RTCA device was used, with 8 wells by 2. Firstly, 100 μl of cell culture was added to the plates to obtain the background density. Then, 3x10^4 cells were seeded in 100 μl of culture medium on top of the culture. After 24 h, the determined concentration ranges were applied.
Therefore, in this study, the concentrations of 5-10-15-25-50 μM were applied to find the optimum dose. […] There was only one study on a different cell line for quinine. […] The concentration range of 25-50-60-70-75-80-100 μM was chosen for etoperidone based on cell viability tests conducted with its analogue, trazadone.
For each selected dose, the drug was applied to two different wells. The first two wells were designated as the control group without drug application. The growth curve data was obtained from the graph generated by the device 48 h after drug application. The RTCA was repeated three times for each drug group. The IC50 calculations and the percent cell viability graphs compared to the control group were obtained from the data obtained from the three repeats.
as §2

SMILES	concentration (and below) with cell viability close to the control, no cytotoxicity [1]	cytotoxic concentration in correlation with RTCA findings [1]	concentration that significantly reduced cell viability compared to the control group (p < 0.001) ([2]; 48 h, RTCA)	concentration up to which no cytotoxicity was observed (cell index) ([2]; 48 h, RTCA)	safe optimum concentration that does not harm cell viability ([2]; based on both RTCA and MTT)	cytotoxicity [1]	cytotoxicity ([2]; 48 h, RTCA, 150-4800 μM)	IC50 ([2]; Homo sapiens, 48 h, read-out: IC50 ± SEM)	harmful effect on cell viability ([2]; based on both RTCA and MTT)	concentration that significantly reduced cell viability compared to the control group (p < 0.001) ([2]; 48 h, RTCA, listed as galantamine)
Nc1nc2[nH]cc(CN[C@H]3C=C[C@H](O)[C@@H]3O)c2c(=O)[nH]1 [Queuine]	≤ 1.25 µM	5 µM	5 µM	≤ 1.25 µM	1.25 µM					
CCc1nn(CCCN2CCN(c3cccc(Cl)c3)CC2)c(=O)n1CC [Etoperidone]	≤ 70 µM	100 µM	100 µM	≤ 70 µM	70 µM					
Cc1ncc(C[n+]2csc(CCO)c2C)c(N)n1 [Thiamine]				≤ 4800 µM		did not show any cytotoxic effect at any concentration	no significant cytotoxicity at any applied concentration	18.8 mM	no dose of Thiamine applied exhibited harmful effects	
COc1ccc2c3c1O[C@H]1C[C@@H](O)C=C[C@@]31CCN(C)C2 [Galantamine]	≤ 10 µM	25 µM	100 µM	≤ 10 µM	10 µM					25 to 50 µM
